Reference: patent US9861703B2 (Jinan Platinum Pharmatech Co. Ltd., priority 2013, dated 2018)
Like-named read-outs stand apart in the source and are kept apart here.

How the values were obtained:
H22 tumor cells [1] = assay: Activities of compounds in H22 tumor cells bearing Kunming mice models (Example 34); settings: for Tumor growth inhibition (%) / Tumor weight: after two cycles
Method: (§2) The ascites was extracted from H22 tumour bearing mice with well growth, followed by adding sterile PBS to dilute the ascites to a concentration of 8.5×10^7 cells/mL. 100 uL of the cells solution was suck up by a 1 mL sterile injector to inoculate into right oxter of mice. After 3 days, the mice were weighted and randomized to several groups (almost 8 mice per group, and a bit more in control group). These mice were administrated a predetermined dosage by intravenous or oral gavage with two days off when having administrated for 5 days until two cycles one of which had 7 days. The body weight of mouse was recorded at the beginning and ending of every cycle,
(§3) After being administrated for two cycles, the mice were weighted and recorded, then sacrificed by cervical dislocation to get lung, liver and spleen weighted respectively.
(§4) Overall difference was calculated by the function of one-way analysis of variance (One-Way ANOVA) in Origin 7.5 software; and t-test was used for pair-comparison between drug administrated group and blank group, and the inhibitory ratio of drug in each group was calculated based on the following equation: inhibitory ratio (100%)=(mean tumor weight of control group−mean tumor weight of drug administrated group)/mean tumor weight of control group×100.

H22 tumor cells [2] = settings: Kunming, mouse, in vivo, 14 days
Method: as §2, §3, §4

[3] = tested on: human breast cancer cell line MCF-7; assay: MTT proliferation inhibition, MCF-7; format: cell-based; settings: Homo sapiens, MCF7, 48 h
Method: (§1) Human leukemia cell line K562, clear-cell ovarian carcinoma cell line ES-2, human prostate cancer cell line PC-3, human breast cancer cell line MCF-7, cell line Hela, human liver cancer cell line H7402 and human ovarian cancer cell line 3-AO were transferred into a culture flask and were cultured in a medium at 37° C. in a 5% CO2 and saturation humidity. One bottle of cells in logarithmic growth phase was picked out and was blew and beaten to be uniform with a pipette, then took some cell suspension solution to prepare blood counting plate smear to count cells under inverted microscope, and then adjusted the cell number to be 1×10^5/mL by adding some culture medium. Cells were seeded on a 96-well plate on which also drug tests performed. Blank control group, negative control group, positive control group and drug test group were established on the plate while the surrounding wells of the plate were not used (but filled with sterile PBS), wherein the blank control groups were prepared by addition of culture medium 150 μL per well, the negative control groups were prepared by addition of cell suspension solution 100 μL per well and culture medium 50 μL per well, the positive control groups were prepared by addition of cell suspension solution 100 μL per well and positive control drug solution 50 μL per well, the drug test groups were prepared by addition of cell suspension solution 100 μL per well and test compound solution 50 μL per well, and there were 5 different concentrations of drug in the positive control group and the drug test group respectively: 0.01, 0.1, 1, 10, 100 μmol·L^−1, each concentration was established with 3 parallel wells. After the drug was added, the 96-well plate was incubated for 48 h at 37° C. in a CO2 incubator of 5% CO2 and saturation humidity. Upon completion of the incubation, 20 μL MTT solution (concentration was 5 mg/mL) was added to each well and incubated for an additional 4 h, and after the 96-well plate was centrifuged at 2000 rpm for 30 min, medium of each well was suck out carefully and removed and 100 μL DMSO was added instead, followed by vibrating on a tablet shaker for 15 min to re-dissolve formazan crystals completely. OD value of each well was measured at 570 nm wavelength using an enzyme-linked immunosorbent assay reader to calculate cellular proliferation inhibitory ratio of each drug in different concentrations. And half-inhibitory concentration (IC50) was calculated using statistical software SPSS 16.0, wherein the cellular proliferation inhibitory ratio can be calculated as following equation: […]

[4] = tested on: human liver cancer cell line H7402; assay: MTT proliferation inhibition, H7402; format: cell-based; settings: Homo sapiens, H7402, 48 h
Method: as §1

[5] = tested on: human prostate cancer cell line PC-3; assay: MTT proliferation inhibition, PC-3; format: cell-based; settings: Homo sapiens, 48 h
Method: as §1

[6] = tested on: human leukemia cell line K562; assay: MTT proliferation inhibition, K562; format: cell-based; settings: Homo sapiens, K562, 48 h
Method: as §1

cell line Hela = assay: MTT proliferation inhibition, Hela; format: cell-based; settings: Homo sapiens, 48 h
Method: as §1

[7] = tested on: human ovarian cancer cell line 3-AO; assay: MTT proliferation inhibition, 3-AO; format: cell-based; settings: Homo sapiens, 48 h
Method: as §1

liver cancer H22 [8] = assay: Inhibition assay of intravenous administration against liver cancer H22 (Example 33)
Method: Extracted the ascites from H22 ascites tumour bearing mice, washed the ascites with sterile PBS for three times and then resuspended the cells with sterile PBS (cells counts: 3.75×10^7 cells/mL), inoculated it into right oxter of Kunming mice 100 uL per mouse.
The H22 tumor-bearing mice were randomized to 4 groups (7 mice per group) after being weighted. […] The size of tumor was measured by using a vernier calliper and weight of mouse by using an electronic balance at the beginning and ending of every cycle, then calculated their mean value. The mice were sacrificed after 13 days and the tumors were taken out and weighted. Tumor volume and inhibitory ratio were calculated as the following equation (L and W referred to length and width of tumor respectively): […]

liver cancer H22 [9] = assay: Inhibition assay of oral administration against liver cancer H22 (Example 33); format: in vivo, Kunming mice; settings: oral gavage, sacrificed after 13 days; for Tumor weight: two cycles (5 days on, 2 off); for inhibitory ratio (%): two cycles
Method: (1) the negative control: PBS; (2) Xeloda group: 100 mg/kg/d; (3) TFU group: 70 mg/kg/d; (4) BC-01 group: 100 mg/kg/d.
[formula] [formula] [formula] 2.2: Inhibition Assay of Intravenous Administration Against Liver Cancer H22

[10] = intravenous injection, 20 mg/kg/d (0.15 mmol/kg/d)
[11] = mouse, in vivo, iv, 20 mg/kg/day
[12] = tail intravenous injection, 20 mg/kg/d, sacrificed after 13 days
[13] = oral gavage, 108 mg/kg/d (0.3 mmol/kg/d)

SMILES: Oc1ncc(F)c(O)n1 [Compound 5-FU, 2,4-dihydroxy-5-fluoropyrimidine, reference compound]
- Tumor growth inhibition (%) (H22 tumor cells [1]; [10]): 10.41%
- Tumor weight (H22 tumor cells [1]; [10]): 0.54 ± 0.06 g
- Body weight(g) Beginning (H22 tumor cells [1]; [10]): 26.89 ± 2.06 g
- Body weight(g) Ending (H22 tumor cells [1]; [10]): 25.51 ± 4.50 g
- Number of mice alive (H22 tumor cells [2]; iv, 20 mg/kg/day): 4
- EC50 [3]: 76.9 µM
- EC50 [4]: 385 µM
- EC50 [5]: 15.7 µM
- EC50 [6]: 16 µM
- EC50 (cell line Hela): 133 µM
- EC50 [7]: 60.8 µM
- Number of mice alive (liver cancer H22 [8]; Kunming, mouse, in vivo, iv, 20 mg/kg/day, 13 days): 7
- Body weight(g) Beginning (liver cancer H22 [8]; [11]): 31.37 ± 4.05 g
- Body weight(g) Ending (liver cancer H22 [8]; [11]): 31.92 ± 4.98 g
- Tumor weight (liver cancer H22 [8]; [12]): 0.84 ± 0.19 g
- inhibitory ratio (%) (liver cancer H22 [8]; [12]): 38.83%

SMILES: O=c1[nH]c(=O)n(C2CCCO2)cc1F (stereo not shown) [TFU]
- Tumor weight (liver cancer H22 [9]; 70 mg/kg/d): 0.68 g
- inhibitory ratio (%) (liver cancer H22 [9]; 70 mg/kg/d): 13.38%

SMILES: CCCCCOC(=O)Nc1nc(=O)n([C@@H]2O[C@H](C)[C@@H](O)[C@H]2O)cc1F [Xeloda, capecitabine, reference compound]
- Tumor growth inhibition (%) (H22 tumor cells [1]; [13]): 40.95%
- Tumor weight (H22 tumor cells [1]; [13]): 0.35 ± 0.09 g
- Body weight(g) Beginning (H22 tumor cells [1]; [13]): 33.00 ± 1.81 g
- Body weight(g) Ending (H22 tumor cells [1]; [13]): 31.42 ± 3.56 g
- Number of mice alive (H22 tumor cells [2]; po, 108 mg/kg/day): 7
- Tumor weight (liver cancer H22 [9]; 100 mg/kg/d): 0.6 g
- inhibitory ratio (%) (liver cancer H22 [9]; 100 mg/kg/d): 24.53%
